Assay results: publication PMC9977887, “Crocodile defensin (CpoBD13) antifungal activity via pH-dependent phospholipid targeting and membrane disruption” (Nature Communications, 2023)
Where no end group is shown, it is not given here.

Test: Liposome pulldown
Type: binding
Details: for Fraction of total protein (%), bound fraction: pH 5.5 (20 mM MES); for Fraction of total protein (%), bound fraction / Fraction of total protein (%), Bound: 1 µg defensin
Experimental: Liposomes were prepared using natural chicken egg L-α-phophatidylcholine and L-α-phosphatidic acid dissolved in chloroform (Avanti Polar Lipids), and liposome pulldowns (at pH 7.4) and calcein-encapsulated liposome lysis assays were performed as previously described. For liposome pulldowns performed at pH 5.5, the same protocol was used with minor variations. The desiccated lipid films were resuspended in 20 mM MES pH 7.4 and were washed in the same buffer during the centrifugation process. After the final wash step, the liposome pellets were resuspended in 20 mM MES pH 5.5 and incubated with CpoBD13 or mutants thereof (also prepared in the same acidic buffer).

[1] = PC only liposomes, pH 7.4, replicate 1
[2] = PC only liposomes, pH 7.4, replicate 2
[3] = PC only liposomes, pH 7.4, replicate 3
[4] = PC:PA 95:5 liposomes, pH 7.4, replicate 1
[5] = PC:PA 95:5 liposomes, pH 7.4, replicate 2
[6] = PC:PA 95:5 liposomes, pH 7.4, replicate 3

CpoBD13: saltwater crocodile β-defensin 13, histidine-rich, three disulphide bonds, recombinantly expressed in Pichia pastoris (NGSYYSTLQCRNNHGHCRRLCFHGEQWIGNCNGRHQHCCK; disulfide (positions not given here); also: three disulphide bonds, pairings not given here)
Fraction of total protein (%), bound fraction (PC only liposomes, replicate 1): 18.4161%
Fraction of total protein (%), bound fraction (PC only liposomes, replicate 2): 18.4773%
Fraction of total protein (%), bound fraction (PC only liposomes, replicate 3): 29.8053%
Fraction of total protein (%), Bound [1]: 12.3509%
Fraction of total protein (%), Bound [2]: 1.776%
Fraction of total protein (%), Bound [3]: 33.499%
Fraction of total protein (%), Unbound [1]: 82.3399%
Fraction of total protein (%), Unbound [2]: 73.2719%
Fraction of total protein (%), Unbound [3]: 23.4493%
binding to PA-enriched liposomes (PC:PA 95:5, pH 7.4): preferentially bound
Fraction of total protein (%), bound fraction (PC:PA 95:5 liposomes, replicate 1): 88.2406%
Fraction of total protein (%), bound fraction (PC:PA 95:5 liposomes, replicate 2): 92.9019%
Fraction of total protein (%), bound fraction (PC:PA 95:5 liposomes, replicate 3): 89.3441%
Fraction of total protein (%), Bound [4]: 40.526%
Fraction of total protein (%), Bound [5]: 42.0716%
Fraction of total protein (%), Bound [6]: 52.0773%
Fraction of total protein (%), Unbound [4]: 36.1151%
Fraction of total protein (%), Unbound [5]: 13.782%
Fraction of total protein (%), Unbound [6]: 17.5375%
binding to PC only liposomes (pH 7.4): negligible binding
